Data published in patent US20250144067A1, “PERSONALIZED STARVATION THERAPY FOR CANCER” (Faeth Therapeutics, Inc., priority 2021, published 2025).
Counter-ions that a name gives are not always drawn. Like-named read-outs stand apart in the source and are kept apart here.

Key:
[1] = system: NCI-H292 lung cancer cells; assay: FDA drug screening, complete media vs cholesterol-free media without statin (TABLE 1); type: cell-based, human
[2] = system: NCI-H292 lung cancer cells; assay: FDA drug screening, complete media vs cholesterol-free media with simvastatin (TABLE 2); type: cell-based, human
[3] = Complete minus Cholesterol-free, greater than 0 enhanced anti-cancer activity, about 0 neutral, below 0 antagonist
[4] = NCI-H292 cells, FDA drug library screen, cholesterol-free media without statin
[5] = NCI-H292 cells, FDA drug library screen, complete media
[6] = NCI-H292 cells, FDA drug library screen, cholesterol-free media with simvastatin 0.04 μM
[7] = complete media minus cholesterol-free media + simvastatin, >0 enhanced anti-cancer activity, about 0 neutral, <0 antagonist
[8] = NCI-H292 cells, FDA library drug in cholesterol-free media with simvastatin 0.04 μM
[9] = NCI-H292 cells, FDA library drug in complete media
[10] = complete media vs cholesterol-free media + simvastatin (0.04 μM), >0 enhanced anti-cancer activity, about 0 neutral, <0 antagonist
[11] = Complete minus Cholesterol-free, […]
[12] = complete media vs cholesterol-free media + simvastatin (0.04 μM), […]
[13] = NCI-H292 cells, cholesterol-free media without statin, FDA drug library screen
[14] = NCI-H292 cells, complete media, FDA drug library screen
[15] = NCI-H292 cells, drug in cholesterol-free media with simvastatin 0.04 μM
[16] = NCI-H292 cells, drug in complete media
[17] = NCI-H292 cells, cholesterol-free media with simvastatin 0.04 μM, FDA drug library screen (TABLE 2)
[18] = NCI-H292 cells, complete media, FDA drug library screen (TABLE 2)
[19] = complete media minus cholesterol-free media + simvastatin (0.04 μM), […]
[20] = Complete minus Cholesterol-free, greater than 0 enhanced anti-cancer activity, about 0 neutral, below 0 antagonists
[21] = NCI-H292 cells in cholesterol-free media without statin
[22] = NCI-H292 cells in complete media
[23] = Complete minus Cholesterol-free, >0 enhanced anti-cancer activity, about 0 neutral, <0 antagonist
[24] = NCI-H292 cells, cholesterol-free media without statin
[25] = NCI-H292 cells, cholesterol-free media with simvastatin 0.04 μM, cell growth value in FDA drug screen
[26] = NCI-H292 cells, complete media, cell growth value in FDA drug screen
[27] = complete vs cholesterol-free media, >0 enhanced anti-cancer activity, about 0 neutral, <0 antagonist
[28] = complete media minus cholesterol-free media + simvastatin (0.04 μM), >0 enhanced anti-cancer activity, about 0 neutral, <0 antagonist

Oc1cccc(-c2c3nc(c(-c4cccc(O)c4)c4ccc([nH]4)c(-c4cccc(O)c4)c4nc(c(-c5cccc(O)c5)c5ccc2[nH]5)CC4)C=C3)c1 [Temoporfin]
Difference [1, 3]: −0.10
Cholesterol-free [1, 4]: 0.848
Complete [1, 5]: 0.7514
Cholesterol-free media + simvastatin (0.04 μM) [2, 6]: 0.6286
Complete Media [2, 5]: 0.9208
Difference [2, 7]: 0.29

CCC(=O)OCC(=O)[C@@]1(OC(=O)CC)[C@@H](C)C[C@H]2[C@@H]3CCC4=CC(=O)C=C[C@]4(C)[C@@]3(Cl)[C@@H](O)C[C@@]21C [Beclometasone dipropionate]
Difference [1, 3]: −0.19
Cholesterol-free [1, 4]: 1.005
Complete [1, 5]: 0.8203
Cholesterol-free media + simvastatin (0.04 μM) [2, 8]: 1.133
Complete Media [2, 9]: 0.8544
Difference [2, 10]: −0.28

CSCCNc1nc(SCCC(F)(F)F)nc2c1ncn2[C@@H]1O[C@H](COP(=O)([O-])OP(=O)([O-])C(Cl)(Cl)P(=O)([O-])[O-])[C@@H](O)[C@H]1O.[Na+].[Na+].[Na+].[Na+] [Cangrelor (tetrasodium)]
Difference [1, 11]: −0.14
Cholesterol-free [1, 4]: 1.189
Complete [1, 5]: 1.05
Cholesterol-free media + simvastatin (0.04 μM) [2, 6]: 1.209
Complete Media [2, 5]: 1.098
Difference [2, 12]: −0.11

CC1(C)[C@@H](O[C@H]2O[C@H](C(=O)[O-])[C@@H](O)[C@H](O)[C@H]2O[C@@H]2O[C@H](C(=O)[O-])[C@@H](O)[C@H](O)[C@H]2O)CC[C@]2(C)[C@H]3C(=O)C=C4[C@@H]5C[C@@](C)(C(=O)O)CC[C@]5(C)CC[C@@]4(C)[C@]3(C)CC[C@@H]12.[K+].[K+] [Dipotassium glycyrrhizinate]
Difference [1, 11]: 0.00
Cholesterol-free [1, 13]: 1.01
Complete [1, 14]: 1.007
Cholesterol-free media + simvastatin (0.04 μM) [2, 15]: 1.125
Complete Media [2, 16]: 0.9331
Difference [2, 12]: −0.19

CN1[C@H]2C[C@H](OC(=O)[C@H](CO)c3ccccc3)C[C@@H]1[C@@H](O)C2 (racemic) [Racanisodamine]
Difference [1, 11]: −0.15
Cholesterol-free [1, 4]: 1.184
Complete [1, 5]: 1.034
Cholesterol-free media + simvastatin (0.04 μM) [2, 17]: 0.9483
Complete Media [2, 18]: 0.9207
Difference [2, 19]: −0.03

O=C(O)[C@@H]1CCCN1 [L-Proline]
Cholesterol-free [1]: 1.37
Complete [1]: 0.9909
Difference [1]: −0.38
Cholesterol-free media + simvastatin (0.04 μM) [2]: 1.794
Complete Media [2]: 1.088
Difference [2]: −0.71

O=c1cc[nH]c(=O)[nH]1 [Uracil]
Difference [1, 3]: −0.17
Cholesterol-free [1, 4]: 1.032
Complete [1, 5]: 0.8653
Cholesterol-free media + simvastatin (0.04 μM) [2, 8]: 1.203
Complete Media [2, 9]: 0.8949
Difference [2, 10]: −0.31

CCCNC(C)C(=O)Nc1ccccc1C (stereo not shown) [Prilocaine]
Difference [1, 20]: −0.49
Cholesterol-free [1, 21]: 1.366
Complete [1, 22]: 0.8796
Cholesterol-free media + simvastatin (0.04 μM) [2, 15]: 1.231
Complete Media [2, 16]: 0.9727
Difference [2, 10]: −0.26

Nc1ccc(S(=O)(=O)Nc2ccccn2)cc1 [Sulfapyridine]
Difference [1, 23]: −0.02
Cholesterol-free [1, 13]: 0.8112
Complete [1, 14]: 0.7909
Cholesterol-free media + simvastatin (0.04 μM) [2, 6]: 1.045
Complete Media [2, 5]: 1.844
Difference [2, 7]: 0.80

CNC(=O)c1c(C)oc2cc(Oc3ncnc4cc(OC)c(OC)cc34)ccc12 [Fruquintinib]
Difference [1, 23]: 0.02
Cholesterol-free [1, 13]: 0.9702
Complete [1, 14]: 0.994
Cholesterol-free media + simvastatin (0.04 μM) [2, 6]: 1.198
Complete Media [2, 5]: 1.059
Difference [2, 10]: −0.14

CCCC(=O)O[C@]1(C(=O)COC(C)=O)CC[C@H]2[C@@H]3C[C@H](F)C4=CC(=O)C=C[C@]4(C)[C@@]3(F)[C@@H](O)C[C@@]21C [Difluprednate]
Difference [1, 23]: −0.21
Cholesterol-free [1, 24]: 0.9273
Complete ([1]; NCI-H292 cells, complete media): 0.7168
Cholesterol-free media + simvastatin (0.04 μM) [2, 25]: 1.197
Complete Media [2, 26]: 1.264
Difference [2, 7]: 0.07

CC(C[N+](C)(C)C)OC(N)=O.[Cl-] (stereo not shown) [Bethanechol (chloride)]
Cholesterol-free [1, 13]: 1.24
Complete [1, 14]: 1.407
Difference [1, 27]: 0.17
Cholesterol-free media + simvastatin (0.04 μM) [2, 8]: 1.34
Complete Media [2, 9]: 0.9882
Difference [2, 10]: −0.35

Enasidenib (mesylate)
Difference [1, 11]: −0.61
Cholesterol-free [1, 21]: 1.538
Complete [1, 22]: 0.9281
Cholesterol-free media + simvastatin (0.04 μM) ([2]; NCI-H292 cells, cholesterol-free media with simvastatin 0.04 μM, […]): 1.526
Complete Media ([2]; NCI-H292 cells, complete media, […]): 1.616
Difference ([2]; complete media minus cholesterol-free media + simvastatin, […]): 0.09

Polymyxin B (Sulfate)
Difference [1, 11]: −0.03
Cholesterol-free [1, 13]: 0.9793
Complete [1, 14]: 0.9463
Cholesterol-free media + simvastatin (0.04 μM) [2, 15]: 1.169
Complete Media [2, 16]: 0.9427
Difference [2, 12]: −0.23

Primaquine (Diphosphate)
Cholesterol-free [1]: 1.192
Complete [1]: 0.8514
Difference [1]: −0.34
Cholesterol-free media + simvastatin (0.04 μM) [2]: 1.421
Complete Media [2]: 1.652
Difference [2]: 0.23

N#Cc1ccc(C2CCCc3cncn32)cc1 (stereo not shown) [Fadrozole hydrochloride]
Cholesterol-free [1]: 1.643
Complete [1]: 1.101
Difference [1]: −0.54
Cholesterol-free media + simvastatin (0.04 μM) [2]: 0.9854
Complete Media [2]: 0.9477
Difference [2]: −0.04

Cn1ncnc1[C@H]1c2n[nH]c(=O)c3cc(F)cc(c23)N[C@@H]1c1ccc(F)cc1 [Talazoparib]
Difference [1, 23]: −0.06
Cholesterol-free [1, 13]: 0.2349
Complete [1, 14]: 0.179
Cholesterol-free media + simvastatin (0.04 μM) [2, 25]: 0.3041
Complete Media [2, 26]: 0.3489
Difference [2, 7]: 0.04

CC(C)(O)c1ccccc1CC[C@@H](SCC1(CC(=O)O)CC1)c1cccc(/C=C/c2ccc3ccc(Cl)cc3n2)c1 [Montelukast (sodium)]
Difference [1, 20]: −0.51
Cholesterol-free [1, 21]: 1.599
Complete [1, 22]: 1.09
Cholesterol-free media + simvastatin (0.04 μM) [2, 25]: 0.8464
Complete Media [2, 26]: 0.9746
Difference [2, 7]: 0.13

C[C@]12CC[C@@H]3c4ccc(O)cc4CC[C@H]3[C@@H]1C[C@@H](O)[C@@H]2O [Estriol]
Cholesterol-free [1, 24]: 1.14
Complete ([1]; NCI-H292 cells, complete media): 0.7448
Difference ([1]; complete vs cholesterol-free media, greater than 0 enhanced anti-cancer activity, about 0 neutral, below 0 antagonists): −0.40
Cholesterol-free media + simvastatin (0.04 μM) [2, 6]: 0.9551
Complete Media [2, 5]: 0.851
Difference [2, 10]: −0.10

Nc1nc(NC2CC2)c2ncn([C@H]3C=C[C@@H](CO)C3)c2n1 [Abacavir]
Cholesterol-free [1, 13]: 0.6425
Complete [1, 14]: 1.2
Difference [1, 27]: 0.56
Cholesterol-free media + simvastatin (0.04 μM) [2, 6]: 1.851
Complete Media [2, 5]: 2.026
Difference [2, 7]: 0.18

COc1ccc(C[C@H](N)C(=O)N[C@H]2[C@@H](O)[C@H](n3cnc4c(N(C)C)ncnc43)O[C@@H]2CO)cc1 [Puromycin (dihydrochloride)]
Difference [1, 23]: −0.02
Cholesterol-free [1, 13]: 0.005958
Complete [1, 14]: −0.01645
Cholesterol-free media + simvastatin (0.04 μM) [2, 17]: −0.002227
Complete Media [2, 18]: −0.05066
Difference [2, 28]: −0.05

CC(=O)Nc1cccc(-n2c(=O)n(C3CC3)c(=O)c3c(Nc4ccc(I)cc4F)n(C)c(=O)c(C)c32)c1 [Trametinib (DMSO solvate)]
Difference [1, 23]: 0.00
Cholesterol-free [1, 13]: 0.2835
Complete [1, 14]: 0.2824
Cholesterol-free media + simvastatin (0.04 μM) [2, 6]: 0.4848
Complete Media [2, 5]: 0.3787
Difference [2, 10]: −0.11

N#Cc1ccc2[nH]cc(CCCCN3CCN(c4ccc5oc(C(=O)O)cc5c4)CC3)c2c1 [Vilazodone carboxylic acid]
Difference [1, 23]: −0.19
Cholesterol-free [1, 24]: 0.9582
Complete ([1]; NCI-H292 cells, complete media): 0.7696
Cholesterol-free media + simvastatin (0.04 μM) [2, 17]: 1.218
Complete Media [2, 18]: 1.232
Difference [2, 28]: 0.01

Gadopentetate (dimeglumine)
Difference [1, 11]: −0.06
Cholesterol-free [1, 13]: 1.132
Complete Media [2, 18]: 1.1
Difference [2, 19]: −0.05

CC1(C)[C@@H](OC(=O)CCC(=O)O)CC[C@]2(C)[C@H]3C(=O)C=C4[C@@H]5C[C@@](C)(C(=O)O)CC[C@]5(C)CC[C@@]4(C)[C@]3(C)CC[C@@H]12 [Carbenoxolone (disodium)]
Difference [1, 23]: −0.05
Cholesterol-free [1, 13]: 1.149
Complete [1, 14]: 1.095
Cholesterol-free media + simvastatin (0.04 μM) [2, 17]: 0.9745
Complete Media [2, 18]: 0.9823
Difference [2, 28]: 0.01

Cc1cc(C(C)(C)C)cc(C)c1CC1=NCCN1 [Xylometazoline (hydrochloride)]
Difference [1, 11]: −0.59
Cholesterol-free [1, 21]: 1.406
Complete [1, 22]: 0.8153
Cholesterol-free media + simvastatin (0.04 μM) [2, 8]: 1.159
Complete Media [2, 9]: 0.7803
Difference [2, 12]: −0.38

CNC(=O)c1ccc(N2C(=S)N(c3ccc(C#N)c(C(F)(F)F)c3)C(=O)C2(C)C)cc1F [Enzalutamide]
Cholesterol-free [1, 13]: 0.885
Complete [1, 14]: 1.326
Difference [1, 27]: 0.44
Cholesterol-free media + simvastatin (0.04 μM) [2, 8]: 0.7893
Complete Media [2, 9]: 0.3116
Difference [2, 10]: −0.48
